These results are taken from patent publication US12496348B2, “Small molecule target bromo/acetyl proteins and uses thereof” (DANA-FARBER CANCER INSTITUTE, INC., priority 2019, dated 2025).

The structures appear in SMILES notation. Like-named read-outs stand apart in the source and are kept apart here. A value given as a limit tells only on which side of the number the result lay.

What is called IC50 is the concentration at which inhibition is half-maximal.

For data set [1], the system named is H3K27ac. Put plainly: Western blot for H3K27ac levels in Kelly NB cells. In kind it is cell-based. To be noted: 24 hours; for H3K27ac / acetylation levels (immunoblot): concentration not given; for acetylation levels (immunoblot): at 1 μM. On the procedure: (§1) Kelly Neuroblastoma cells were seeded at 1,000,000 cells per well in 6 well plates and were treated in a dose-dependent manner for 24 hours. Whole cell lysates were collected using ice cold lysis buffer [300 mM NaCl, 50 mM Tris-HCl, pH 7.5, 0.5% Triton X-100, 1% sodium dodecyl sulfate (SDS), 1 mM dithiothreitol (DTT) (Invitrogen™), Roche®'s cOmplete™ protease inhibitor cocktail (1:000), 25 units/mL Benzonase®] and blotted at a protein concentration of 30 μg for EP300 and CBP and 10 μg for histone H3 and H3K27ac. Lysates were also blotted for bromodomain-containing protein 4 (BRD4). Lysates were resolved in NuPAGE™ 3-8% Tris-Acetate polyacrylamide gels (EA03785BOX, Invitrogen™) for EP300 and CBP and Bolt 4-12% Bis-Tris polyacrylamide gels (NW04125BOX, Invitrogen™) for H3 and H3K27ac. Afterwards, gels were transferred to nitrocellulose membranes (LC2001, Invitrogen™). […] Visualization was performed on an Odyssey infrared imaging system (LiCor® Biosciences).
In general terms: Immunoblotting shows a protein as a band on a membrane.

Data set [2] has as its system Kelly Neuroblastoma cells. Put plainly: ATPlite Luminescence viability assay, Kelly neuroblastoma cells, 72 h. To be noted: for IC50: ATPlite. In kind it is cell-based. On the procedure: Kelly Neuroblastoma cells were seeded at 1,000 cells per well in 384 well, white plates and were treated in a dose-dependent manner for 72 h.
(In ATP-based viability assays light output follows the ATP content of the culture.)

Data set [3] deals with EP300 (Homo sapiens (Human), UniProt Q09472). Put plainly: Western blot for EP300 degradation in Kelly NB cells. In kind it is cell-based. As for the experimental part: as §1, with “Kelly Neuroblastoma cells were seeded at 1,000,000 cells per well in 6 well plates and were treated in a dose-dependent manner for 24 hours.” left out
For data set [4], the target named is CBP bromodomain (Homo sapiens (Human), UniProt Q92793). The data set can be described thus: CBP (Bromodomain) AlphaScreen Assay. In kind it is binding. The settings on record: FIG. 6. As for the experimental part: Assays were performed with minimal modifications from the manufacturer's protocol (PerkinElmer®, USA). All reagents were diluted in 50 mM 4-(2-hydroxyethyl)-1-piperazineethanesulfonic acid (HEPES), 150 mM NaCl, 0.1% w/v bovine serum albumin (BSA), 0.01% w/v Tween® 20, pH 7.5 and allowed to equilibrate to room temperature prior to addition to plates. After addition of AlphaScreen® acceptor beads to master solutions, all subsequent steps were performed under low light conditions. […] Plates were spun down at 150×g, 100 nL of compound in dimethyl sulfoxide (DMSO) from stock plates were added by pin transfer using a Janus® Workstation (PerkinElmer®, USA). The streptavidin-coated donor beads (10 ng/ml final) were added as with previous the solution in a 2×10 μL volume. Following this addition, plates were sealed with foil to prevent light exposure and evaporation. The plates were spun down again at 150×g.
A general note: In Alpha technology, singlet oxygen from a donor bead excites a nearby acceptor bead.

In data set [5] the target is CBP (Homo sapiens (Human), UniProt Q92793). The data set can be described thus: Western blot for CBP degradation in Kelly NB cells. The format is cell-based. On the procedure: as §1, with “Kelly Neuroblastoma cells were seeded at 1,000,000 cells per well in 6 well plates and were treated in a dose-dependent manner for 24 hours.” left out
Data set [6] addresses bromodomain-containing protein 4 (BRD4) (Homo sapiens (Human), UniProt O60885). The data set can be described thus: Western blot for BRD4 levels in Kelly NB cells. In kind it is cell-based. To be noted: 24 h, at 1 μM. As for the experimental part:
(§2) Kelly Neuroblastoma cells were seeded at 1,000,000 cells per well in 6 well plates and were treated in a dose-dependent manner for 24 hours. Whole cell lysates were collected using ice cold lysis buffer [300 mM NaCl, 50 mM Tris-HCl, pH 7.5, 0.5% Triton X-100, 1% sodium dodecyl sulfate (SDS), 1 mM dithiothreitol (DTT) (Invitrogen™), Roche®'s cOmplete™ protease inhibitor cocktail (1:000), 25 units/mL Benzonase®] and blotted at a protein concentration of 30 μg for EP300 and CBP and 10 μg for histone H3 and H3K27ac. Lysates were also blotted for bromodomain-containing protein 4 (BRD4). Lysates were resolved in NuPAGE™ 3-8% Tris-Acetate polyacrylamide gels (EA03785BOX, Invitrogen™) for EP300 and CBP and Bolt 4-12% Bis-Tris polyacrylamide gels (NW04125BOX, Invitrogen™) for H3 and H3K27ac. Afterwards, gels were transferred to nitrocellulose membranes (LC2001, Invitrogen™). Primary and secondary antibodies used included anti-p300 at 1:500 dilution (ab10485, Abcam®), anti-CBP at 1:500 dilution (D6C5, Cell Signaling Technology®), anti-Actin at 1:5000 dilution (3700S, Cell Signaling Technology®), anti-H3 at 1:1000 dilution (4499S, Cell Signaling Technology®), anti-H3K27ac at 1:1000 dilution (ab4729, Abcam®), IRDye®800 goat anti-rabbit at 1:5000 dilution (926-32211, LiCor® Biosciences) and IRDye®680 goat anti-mouse at 1:5000 dilution (926-68070, LiCor®). Visualization was performed on an Odyssey infrared imaging system (LiCor® Biosciences).

Data set [7] concerns BRD2/3/4. Put plainly: Western blot, selectivity against BRD2/3/4 in Kelly NB cells. In kind it is cell-based. To be noted: 8 and 16 hours. On the procedure:
as §2, with “Kelly Neuroblastoma cells were seeded at 1,000,000 cells per well in 6 well plates and were treated in a dose-dependent manner for 24 hours.” left out

Data set [8] concerns Kelly Neuroblastoma cells. Put plainly: Western blot experiment, cytotoxicity observed in Kelly NB cells. The settings on record: 24 hours. In kind it is cell-based. As for the experimental part:
as §1

Setting [9] is: Kelly Neuroblastoma cells, class symbols, read-out: IC50 of inventive bispecific compounds.
[10] abbreviates: Kelly Neuroblastoma cells, read-out: IC50.
Setting [11] is: 24 hours, concentration not given.

Chain of EP300 (Q09472 whole entry): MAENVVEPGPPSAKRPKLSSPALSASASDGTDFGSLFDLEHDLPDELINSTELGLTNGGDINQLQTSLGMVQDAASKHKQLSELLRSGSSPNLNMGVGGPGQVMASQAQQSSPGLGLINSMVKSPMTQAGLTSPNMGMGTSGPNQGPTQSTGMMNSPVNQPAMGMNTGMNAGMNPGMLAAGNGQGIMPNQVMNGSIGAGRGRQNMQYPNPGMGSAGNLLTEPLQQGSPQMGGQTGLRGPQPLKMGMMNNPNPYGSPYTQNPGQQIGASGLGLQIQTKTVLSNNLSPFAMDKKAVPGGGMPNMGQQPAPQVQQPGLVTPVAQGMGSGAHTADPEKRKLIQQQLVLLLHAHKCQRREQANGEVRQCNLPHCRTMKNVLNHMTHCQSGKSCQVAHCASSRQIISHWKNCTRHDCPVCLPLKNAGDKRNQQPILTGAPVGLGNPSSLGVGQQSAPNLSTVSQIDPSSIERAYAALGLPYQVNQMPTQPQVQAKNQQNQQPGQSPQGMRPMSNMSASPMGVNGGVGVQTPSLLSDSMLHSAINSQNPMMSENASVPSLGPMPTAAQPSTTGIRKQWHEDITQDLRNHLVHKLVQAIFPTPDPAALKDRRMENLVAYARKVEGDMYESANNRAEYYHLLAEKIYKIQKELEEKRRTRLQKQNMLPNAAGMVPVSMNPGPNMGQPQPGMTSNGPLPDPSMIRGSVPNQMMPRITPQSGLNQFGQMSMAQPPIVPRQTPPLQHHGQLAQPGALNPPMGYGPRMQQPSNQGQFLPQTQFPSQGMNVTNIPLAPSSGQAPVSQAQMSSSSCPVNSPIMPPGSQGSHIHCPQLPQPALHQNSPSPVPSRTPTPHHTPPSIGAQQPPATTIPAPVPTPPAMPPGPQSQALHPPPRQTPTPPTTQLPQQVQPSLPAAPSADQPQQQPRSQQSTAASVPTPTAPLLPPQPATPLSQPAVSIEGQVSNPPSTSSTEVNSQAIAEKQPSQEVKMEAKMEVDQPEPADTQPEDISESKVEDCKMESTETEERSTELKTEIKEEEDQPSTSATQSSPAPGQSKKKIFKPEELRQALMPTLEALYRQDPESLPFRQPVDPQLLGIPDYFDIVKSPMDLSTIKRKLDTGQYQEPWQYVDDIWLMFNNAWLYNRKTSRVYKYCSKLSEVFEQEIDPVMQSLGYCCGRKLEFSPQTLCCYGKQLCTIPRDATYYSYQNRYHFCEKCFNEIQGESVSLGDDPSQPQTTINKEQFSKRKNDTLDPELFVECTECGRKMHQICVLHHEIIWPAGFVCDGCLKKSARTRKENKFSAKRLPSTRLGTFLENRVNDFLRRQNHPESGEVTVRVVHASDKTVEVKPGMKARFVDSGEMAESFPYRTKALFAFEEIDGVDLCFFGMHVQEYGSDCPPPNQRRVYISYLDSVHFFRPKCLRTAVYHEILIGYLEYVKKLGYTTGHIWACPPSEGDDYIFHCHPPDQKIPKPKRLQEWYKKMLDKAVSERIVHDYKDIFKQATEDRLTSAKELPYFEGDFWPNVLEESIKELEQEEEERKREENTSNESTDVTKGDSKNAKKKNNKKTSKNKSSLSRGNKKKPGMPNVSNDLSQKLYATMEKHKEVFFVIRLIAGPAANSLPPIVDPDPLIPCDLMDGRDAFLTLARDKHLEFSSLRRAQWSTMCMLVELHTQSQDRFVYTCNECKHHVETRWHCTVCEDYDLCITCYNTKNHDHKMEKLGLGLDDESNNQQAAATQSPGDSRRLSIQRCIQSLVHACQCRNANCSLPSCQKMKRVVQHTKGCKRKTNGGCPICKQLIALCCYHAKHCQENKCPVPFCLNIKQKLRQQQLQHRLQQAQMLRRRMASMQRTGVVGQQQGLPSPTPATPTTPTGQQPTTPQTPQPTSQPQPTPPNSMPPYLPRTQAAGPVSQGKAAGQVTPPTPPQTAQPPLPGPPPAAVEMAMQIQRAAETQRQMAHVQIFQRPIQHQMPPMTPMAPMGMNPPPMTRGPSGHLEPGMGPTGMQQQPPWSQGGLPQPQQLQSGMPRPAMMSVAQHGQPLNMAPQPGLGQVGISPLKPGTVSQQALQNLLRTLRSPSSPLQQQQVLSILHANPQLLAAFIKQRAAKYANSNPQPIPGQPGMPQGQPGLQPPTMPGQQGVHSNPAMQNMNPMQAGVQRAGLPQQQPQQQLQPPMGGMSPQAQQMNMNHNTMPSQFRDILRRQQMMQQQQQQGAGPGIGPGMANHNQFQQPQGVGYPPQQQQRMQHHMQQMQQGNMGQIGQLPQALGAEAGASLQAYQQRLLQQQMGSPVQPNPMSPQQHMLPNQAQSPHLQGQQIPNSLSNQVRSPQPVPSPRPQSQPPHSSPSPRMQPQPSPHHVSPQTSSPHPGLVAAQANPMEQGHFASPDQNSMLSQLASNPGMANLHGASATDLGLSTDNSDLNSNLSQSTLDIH
Chain of CBP (Q92793 whole entry): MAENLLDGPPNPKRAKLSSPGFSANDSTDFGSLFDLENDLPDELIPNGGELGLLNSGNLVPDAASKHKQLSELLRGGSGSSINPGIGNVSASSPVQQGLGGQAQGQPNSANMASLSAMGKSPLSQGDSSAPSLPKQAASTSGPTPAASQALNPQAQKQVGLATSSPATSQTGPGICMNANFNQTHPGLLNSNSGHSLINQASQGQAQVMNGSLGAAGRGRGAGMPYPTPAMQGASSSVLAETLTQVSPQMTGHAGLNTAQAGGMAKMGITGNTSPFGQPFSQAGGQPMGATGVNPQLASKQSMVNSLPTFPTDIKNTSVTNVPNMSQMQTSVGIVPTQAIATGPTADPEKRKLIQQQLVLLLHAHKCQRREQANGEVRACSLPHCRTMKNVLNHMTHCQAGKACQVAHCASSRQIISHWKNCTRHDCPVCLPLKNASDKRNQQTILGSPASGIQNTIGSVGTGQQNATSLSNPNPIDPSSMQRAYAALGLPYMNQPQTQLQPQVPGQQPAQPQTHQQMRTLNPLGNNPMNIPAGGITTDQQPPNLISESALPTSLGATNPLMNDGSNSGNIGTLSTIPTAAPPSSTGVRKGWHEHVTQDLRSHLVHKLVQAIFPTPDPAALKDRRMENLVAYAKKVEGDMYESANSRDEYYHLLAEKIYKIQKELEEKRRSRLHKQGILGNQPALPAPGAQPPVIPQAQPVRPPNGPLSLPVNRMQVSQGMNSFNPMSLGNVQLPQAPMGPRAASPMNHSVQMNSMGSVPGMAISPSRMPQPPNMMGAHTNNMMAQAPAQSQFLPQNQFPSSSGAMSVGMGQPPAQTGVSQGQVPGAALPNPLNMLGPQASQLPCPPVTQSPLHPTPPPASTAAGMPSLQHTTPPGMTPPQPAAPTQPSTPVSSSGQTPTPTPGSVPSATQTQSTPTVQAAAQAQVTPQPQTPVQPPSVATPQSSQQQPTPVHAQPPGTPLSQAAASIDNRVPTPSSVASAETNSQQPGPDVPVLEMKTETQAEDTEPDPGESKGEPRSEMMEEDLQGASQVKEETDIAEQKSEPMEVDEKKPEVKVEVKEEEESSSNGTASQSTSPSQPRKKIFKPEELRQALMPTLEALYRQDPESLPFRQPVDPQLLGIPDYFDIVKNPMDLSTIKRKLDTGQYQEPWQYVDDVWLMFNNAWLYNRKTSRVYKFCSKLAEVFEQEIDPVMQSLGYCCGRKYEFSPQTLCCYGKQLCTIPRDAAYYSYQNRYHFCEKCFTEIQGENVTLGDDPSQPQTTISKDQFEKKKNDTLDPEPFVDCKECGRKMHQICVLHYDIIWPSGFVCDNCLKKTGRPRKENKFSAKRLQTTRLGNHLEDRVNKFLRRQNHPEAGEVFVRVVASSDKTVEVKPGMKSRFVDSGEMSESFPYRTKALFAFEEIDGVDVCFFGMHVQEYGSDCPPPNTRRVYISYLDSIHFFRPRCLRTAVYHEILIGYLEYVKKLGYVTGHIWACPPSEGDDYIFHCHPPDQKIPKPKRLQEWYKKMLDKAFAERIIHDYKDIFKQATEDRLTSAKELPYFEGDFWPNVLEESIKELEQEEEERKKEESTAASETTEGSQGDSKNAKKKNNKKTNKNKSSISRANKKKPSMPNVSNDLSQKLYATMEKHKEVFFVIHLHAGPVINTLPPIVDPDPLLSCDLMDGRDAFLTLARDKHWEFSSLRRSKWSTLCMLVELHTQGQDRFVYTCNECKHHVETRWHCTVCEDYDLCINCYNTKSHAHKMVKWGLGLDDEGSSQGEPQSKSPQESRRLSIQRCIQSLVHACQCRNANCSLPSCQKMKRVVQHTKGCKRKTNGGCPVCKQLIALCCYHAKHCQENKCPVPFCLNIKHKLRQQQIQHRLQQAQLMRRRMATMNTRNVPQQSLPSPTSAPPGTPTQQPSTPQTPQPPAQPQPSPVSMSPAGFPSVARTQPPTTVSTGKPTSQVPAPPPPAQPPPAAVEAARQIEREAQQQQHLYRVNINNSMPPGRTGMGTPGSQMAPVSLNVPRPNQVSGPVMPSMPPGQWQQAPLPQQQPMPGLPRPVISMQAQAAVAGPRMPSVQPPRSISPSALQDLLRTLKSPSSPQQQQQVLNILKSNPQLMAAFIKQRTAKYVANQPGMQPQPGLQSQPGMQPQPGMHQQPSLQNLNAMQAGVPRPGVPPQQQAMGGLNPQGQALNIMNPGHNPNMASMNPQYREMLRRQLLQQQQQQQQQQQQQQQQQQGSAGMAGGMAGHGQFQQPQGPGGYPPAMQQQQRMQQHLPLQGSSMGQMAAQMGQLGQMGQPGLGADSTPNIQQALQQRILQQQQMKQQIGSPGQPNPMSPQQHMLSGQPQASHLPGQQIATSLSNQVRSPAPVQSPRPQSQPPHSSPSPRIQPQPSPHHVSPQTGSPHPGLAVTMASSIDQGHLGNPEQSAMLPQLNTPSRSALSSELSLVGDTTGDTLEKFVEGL
Chain of CBP bromodomain (Q92793 1085-1192): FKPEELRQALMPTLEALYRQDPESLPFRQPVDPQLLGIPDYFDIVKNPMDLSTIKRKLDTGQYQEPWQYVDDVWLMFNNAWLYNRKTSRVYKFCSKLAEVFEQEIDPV

For `Cc1noc(C)c1-c1ccc2nc(-c3ccc(N4CCN(C(=O)CCOCCOCCOCCNc5cccc6c5C(=O)N(C5CCC(=O)NC5=O)C6=O)CC4)cc3)c(NC3CCCCC3)n2c1` (centres unmarked) [Compound 2, 4-((2-(2-(2-(3-(4-(4-(3-(cyclohexylamino)-6-(3,5-dimethylisoxazol-4-yl)imidazo[1,2-a]pyridin-2-yl)phenyl)piperazin-1-yl)-3-oxopropoxy)ethoxy)ethoxy)ethyl)amino)-2-(2,6-dioxopiperidin-3-yl)isoindoline-1,3-dione], in data set [1], the “H3K27ac / acetylation levels (immunoblot)” value is recorded as “evident reduction”. Also, the IC50 is less than 100 nM in data set [2] (setting [9]) and 91.8 ± 6.58 nM in data set [2] (setting [10]). Moreover, the “IC50 potency relative to A485” value in data set [2] (Kelly Neuroblastoma cells, more potent than A485) is recorded as “about 10 fold”. Moreover, the “EP300 degradation (immunoblot)” value in data set [3] (setting [11]) is listed as “potent degrader”. In addition, the “bound to CBP (bromodomain), range” value in data set [4] was approximately 10 µM. Also, in data set [5] (setting [11]), the “CBP degradation (immunoblot)” value is listed as “potent degrader”.
For `Cc1noc(C)c1-c1ccn2c(NCc3ccccc3)c(-c3ccc(N4CCN(C(=O)COc5cccc6c5C(=O)N(C5CCC(=O)NC5=O)C6=O)CC4)cc3)nc2c1` (centres unmarked) [Compound 7, 4-(2-(4-(4-(3-(benzylamino)-7-(3,5-dimethylisoxazol-4-yl)imidazo[1,2-a]pyridin-2-yl)phenyl)piperazin-1-yl)-2-oxoethoxy)-2-(2,6-dioxopiperidin-3-yl)isoindoline-1,3-dione], the “H3K27ac / acetylation levels (immunoblot)” value in data set [1] is “slight reduction”. Further, the “IC50 values (range in words)” value in data set [2] (Kelly Neuroblastoma cell proliferation) is “micromolar and sub-micromolar range”. For the same compound, the IC50 is less than 100 nM in data set [2] (setting [9]) and 33.1 nM in data set [2] (setting [10]). The “P300 degradation (immunoblot)” value in data set [3] (24 hours, at 1 μM) is listed as “noticeable degradation”. Besides, the “CBP degradation (immunoblot)” value in data set [5] (24 hours, at 1 μM) is on record as “noticeable degradation”.
In the case of `Cc1noc(C)c1-c1ccn2c(NC3CCCCC3)c(CCc3ccc(NC(=O)CCOCCOCCOCCNc4cccc5c4C(=O)N(C4CCC(=O)NC4=O)C5=O)cc3)nc2c1` (centres unmarked) [Compound 8, N-(4-(2-(3-(cyclohexylamino)-7-(3,5-dimethylisoxazol-4-yl)imidazo[1,2-a]pyridin-2-yl)ethyl)phenyl)-3-(2-(2-(2-((2-(2,6-dioxopiperidin-3-yl)-1,3-dioxoisoindolin-4-yl)amino)ethoxy)ethoxy)ethoxy)propanamide], in data set [1], the “acetylation levels (immunoblot)” value is recorded as “reduction”. In data set [2] (setting [9]), the IC50 fell in the range of 100 to 1000 nM. Besides, the “P300 degradation (immunoblot)” value in data set [3] (24 hours, at 1 μM) is given as “noticeable degradation”. In addition, the “BRD4 degradation (immunoblot)” value in data set [6] is “observed”. Moreover, in data set [5] (24 hours, at 1 μM), the “CBP degradation (immunoblot)” value is on record as “noticeable degradation”.
As to `Cc1noc(C)c1-c1ccn2c(NC3CCCCC3)c(CCc3ccc(NC(=O)CCCCCNc4cccc5c4C(=O)N(C4CCC(=O)NC4=O)C5=O)cc3)nc2c1` (centres unmarked) [Compound 11, N-(4-(2-(3-(cyclohexylamino)-7-(3,5-dimethylisoxazol-4-yl)imidazo[1,2-a]pyridin-2-yl)ethyl)phenyl)-6-((2-(2,6-dioxopiperidin-3-yl)-1,3-dioxoisoindolin-4-yl)amino)hexanamide], in data set [1], the “acetylation levels (immunoblot)” value is listed as “reduction”. In data set [2] (setting [9]), the IC50 fell in the range of 100 to 1000 nM. The “P300 degradation (immunoblot)” value in data set [3] (24 hours, at 1 μM) is recorded as “noticeable degradation”. Moreover, the “BRD4 degradation (immunoblot)” value in data set [6] was “observed”. Besides, the “CBP degradation (immunoblot)” value in data set [5] (24 hours, at 1 μM) was “noticeable degradation”.
As to `Cc1noc(C)c1-c1ccn2c(NC3CCCCC3)c(CCc3ccc(NC(=O)COc4cccc5c4C(=O)N(C4CCC(=O)NC4=O)C5=O)cc3)nc2c1` (centres unmarked) [Compound 12, N-(4-(2-(3-(cyclohexylamino)-7-(3,5-dimethylisoxazol-4-yl)imidazo[1,2-a]pyridin-2-yl)ethyl)phenyl)-2-((2-(2,6-dioxopiperidin-3-yl)-1,3-dioxoisoindolin-4-yl)oxy)acetamide], the “acetylation levels (immunoblot)” value in data set [1] is “reduction”. In addition, the IC50 in data set [2] (setting [9]) lay within 1000 to 10000 nM. Further, in data set [3] (24 hours, at 1 μM), the “P300 degradation (immunoblot)” value was “noticeable degradation”. Also, in data set [6], the “BRD4 degradation (immunoblot)” value is given as “observed”.
In the case of `C[C@@H]1CC(=O)Nc2cccc(-c3ccc4c(c3)c(-c3cnn(C(=O)CCCCCCCCCNc5cccc6c5C(=O)N(C5CCC(=O)NC5=O)C6=O)c3)nn4C)c2N1` (stereo partly drawn) [Compound 31, 2-(2,6-dioxopiperidin-3-yl)-4-((10-(4-(1-methyl-5-((R)-4-methyl-2-oxo-2,3,4,5-tetrahydro-1H-benzo[b][1,4]diazepin-6-yl)-1H-indazol-3-yl)-1H-pyrazol-1-yl)-10-oxodecyl)amino)isoindoline-1,3-dione], the “selectivity of P300 and CBP degradation against BRD2/3/4” value in data set [7] was “selective”. Further, in data set [3] (8 and 16 hours, at 3 μM), the “P300 degradation (immunoblot)” value is reported as “noticeable degradation”. Moreover, the “CBP degradation (immunoblot)” value in data set [5] (8 and 16 hours, at 3 μM) was “noticeable degradation”.
As to `Cc1noc(C)c1-c1ccc2nc(-c3ccc(N4CCNCC4)cc3)c(NC3CCCCC3)n2c1.Cl` [Int-2], the “bound to CBP (bromodomain), range” value in data set [4] is approximately 10 µM. For the same compound, in data set [8], the general cytotoxicity entry is given as “general cytotoxicity”.
